We go through 52 molecules from patent USRE37781E1, “Substituted cyclic carbonyls and derivatives thereof useful as retroviral protease inhibitors” (DuPont Pharmaceuticals Company, priority 1991, dated 2002).

Molecules are shown by their SMILES. Where only a bound is given, the exact number is not on record here.

The target in one experiment is single-chain tethered dimer of HIV protease (Human immunodeficiency virus 1, UniProt P04585). Put plainly: biochemical. Format: biochemical. Also noted: fused on or other part: A second copy of the same protease unit is joined to the first by a short peptide tether, giving one polypeptide. To be noted: HIV protease inhibition, HPLC method; Table 2d; read-out: HPLC K1. How it is done: HIV Protease Inhibition Assay—HPLC Method
Active protease was prepared as described therein by extraction with 67% acetic acid, dilution 33-fold with water, dialysis against water and then against a “refolding buffer” consisting of 20 mM MES, 1 mM dithiothreitol and 10% glycerol. Protease was stored as a stock preparation at 10 uM in refolding buffer.
Substrate: Peptide of sequence: aminobenzoyl-Ala-Thr-His-Gln-Val-Tyr-Phe(NO2)-Val-Arg-Lys-Ala containing p-nitrophenylalanine, was prepared by solid phase synthesis as previously described Cheng et al., op.cit. Stock solutions of 2 mM substrate were prepared in DMSO.
Inhibitory compounds were dissolved in sufficient DMSO to make 3 mM stock solutions. All further dilutions were prepared in “assay buffer”: 1M NaCl, 50 mM MES, pH 5.5, 1 mM EDTA, 1 mM DTT, […] glycerol.
Enzyme reaction: In a 2 ml screw-cap centrifuge tube were added 50 ul protease (final concentration 0.25 nM) and 0.1 ml inhibitory compound (final concentration […]). After 15 min preincubation at room temperature, the reaction was started with the addition of 0.05 ml substrate (final concentration 5 uM). Incubation was carried out at 30 C. for 1 hr. The reaction was stopped with 1 ml 0.1M ammonium hydroxide.
HPLC measurement of product formation: The product (aminobenzoyl-Ala-Thr-His-Gln-Val-Tyr) was separated from substrate on a Pharmacia MonoQ anion exchange column. The injection volume was 0.2 ml. The mobile phases were: A (20 mM trisHCl, pH 9.0, 0.02% sodium Azide, 10% acetonitrile), B (20 mM tris HCl, pH 9.0, 0.02% sodium azide, 0.5M ammonium formate, 10% acetonitrile). The mobile phases were pumped at 1 ml/min, with a gradient from 0 to 30% B in 5 min, 100% B for 4 min to wash the column, and a re-equilibration for 4 min. The retention time of the product was 3.6 min. Detection with a Shimadzu model RF535 fluorescence monitor was at 330 nm (excitation) and 430 (emission).
For the molecule `CC(CCCN1C(=O)N(CCCC(C)n2ccnc2)[C@H](Cc2ccccc2)[C@H](O)[C@@H](O)[C@H]1Cc1ccccc1)n1ccnc1` (stereo partly shown) [15FK], the Ki was above 1000 nM. On the same count and under the same terms, for `O=C1N(Cc2ccc(CO)o2)C(Cc2ccccc2)C(O)C(O)C(Cc2ccccc2)N1Cc1ccc(CO)o1` (stereo not shown) [15FY] the value was 10 to 1000 nM.

Staying with this experiment, now noted: Table 2e; read-out: K4 HPLC.
In the case of `CSCCC1C(O)C(O)C(CCSC)N(Cc2ccc(CO)cc2)C(=O)N1Cc1ccc(CO)cc1` (stereo not shown) [16AF], the Ki is above 1000 nM.

For `O=C1N(Cc2ccccc2)C(Cc2ccc3ccccc3c2)C(O)C(O)C(Cc2ccc3ccccc3c2)N1Cc1ccccc1` (stereo not shown) [16K], the Ki is below 10 nM. As to `O=C1N(CC2CC2)C(Cc2ccc3ccccc3c2)C(O)C(O)C(Cc2ccc3ccccc3c2)N1CC1CC1` (stereo not shown) [16L], the Ki was below 10 nM. Still for that read-out and setting: the result for `O=C1N(CC2CC2)C(Cc2cccs2)C(O)C(O)C(Cc2cccs2)N1CC1CC1` (stereo not shown) [16O] reads below 10 nM. Still for that read-out and setting: for `NC(=NO)c1cccc(CN2C(=O)N(Cc3cccc(C(N)=NO)c3)C(Cc3cccs3)C(O)C(O)C2Cc2cccs2)c1` (stereo not shown) [16P] the value was below 10 nM.

Still in this experiment, the particulars now being: Table 2i; read-out: HPLC Ki.
In the case of `COc1ccc(CC2C(O)C(O)C(Cc3ccc(OC)cc3)N(CC3CC3)C(=O)N2CC2CC2)cc1` (stereo not shown) [20AF], the Ki was below 10 nM. As to `COc1ccc(CC2C(O)C(O)C(Cc3ccc(OC)cc3)N(Cc3ccccc3)C(=O)N2Cc2ccccc2)cc1` (stereo not shown) [20AG], the Ki is below 10 nM. Turning to `COc1ccc(CC2C(O)C(O)C(Cc3ccc(OC)cc3)N(Cc3ccc4ccccc4c3)C(=O)N2Cc2ccc3ccccc3c2)cc1` (stereo not shown) [20AH], the Ki is below 10 nM. Still for that read-out and setting: the result for `COC(=O)c1ccc(CN2C(=O)N(Cc3ccc(C(=O)OC)cc3)C(Cc3ccc(OC)cc3)C(O)C(O)C2Cc2ccc(OC)cc2)cc1` (stereo not shown) [20AI] reads above 1000 nM; that for `COc1ccc(CC2C(O)C(O)C(Cc3ccc(OC)cc3)N(Cc3ccc(CO)cc3)C(=O)N2Cc2ccc(CO)cc2)cc1` (stereo not shown) [20AJ], below 10 nM; that for `O=C1N(Cc2ccccc2)[C@H](Cc2ccc(O)cc2)[C@H](O)[C@@H](O)[C@@H](Cc2ccc(O)cc2)N1Cc1ccccc1` [20AK], below 10 nM. As for `C=CCN1C(=O)N(CC=C)C(Cc2ccc(OC)cc2)C(O)C(O)C1Cc1ccc(OC)cc1` (stereo not shown) [20AL], the Ki was below 10 nM. As for `O=C1N(Cc2ccccc2)C(Cc2ccc(OCCO)cc2)C(O)C(O)C(Cc2ccc(OCCO)cc2)N1Cc1ccccc1` (stereo not shown) [20AM], the Ki was below 10 nM.

Consider `CCOC(=O)COc1cccc(CC2C(O)C(O)C(Cc3cccc(OCC(=O)OCC)c3)N(CC3CC3)C(=O)N2CC2CC2)c1` (stereo not shown) [20AV], for which the Ki lay in the range of 10 to 1000 nM. Consider `O=C1N(Cc2ccc(CO)cc2)C(Cc2ccc(F)cc2)C(O)C(O)C(Cc2ccc(F)cc2)N1Cc1ccc(CO)cc1` (stereo not shown) [20I], for which the Ki is below 10 nM. Consider `CC(=O)c1ccc(CN2C(=O)N(Cc3ccc(C(C)=O)cc3)C(Cc3ccccc3)C(O)C(O)C2Cc2ccccc2)cc1` (stereo not shown) [20J], for which the Ki lay in the range of 10 to 1000 nM.

Still in this experiment, the particulars now being: Table 2m; read-out: HPLC Ki.
As to `O=C(NCCN1CCOCC1)c1cccc(CN2C(Cc3ccccc3)C(O)C(O)C(Cc3ccccc3)N(Cc3cccc(C(=O)NCCN4CCOCC4)c3)S2(=O)=O)c1` (stereo not shown) [23Z], the Ki lay within 10 to 1000 nM.

The experiment is the same for the next values; noted with them: Table 2d; HIV protease inhibition, HPLC method; read-out: HPLC K1.
As to `CN1CCN(CCCN2C(=O)NC(Cc3ccccc3)C(O)C(O)C2Cc2ccccc2)CC1` (stereo not shown) [15AP], the Ki is above 1000 nM. Still for that read-out and setting: the result for `O=C1N(Cc2cccc(-c3nc4ccccc4[nH]3)c2)C(Cc2ccccc2)C(O)C(O)C(Cc2ccccc2)N1Cc1cccc(-c2nc3ccccc3[nH]2)c1` (stereo not shown) [15AX] reads 10 to 1000 nM; that for `Nc1ncc(-c2cccc(CN3C(=O)N(Cc4cccc(-c5ccnc(N)n5)c4)C(Cc4ccccc4)C(O)C(O)C3Cc3ccccc3)c2)cn1` (stereo not shown) [15BB], 10 to 1000 nM; that for `O=C1N(Cc2ccc3nnn(O)c3c2)C(Cc2ccccc2)C(O)C(O)C(Cc2ccccc2)N1Cc1ccc2nnn(O)c2c1` (stereo not shown) [15CU], 10 to 1000 nM. As for `CNc1noc2ccc(CN3C(=O)N(Cc4ccc5onc(NC)c5c4)C(Cc4ccccc4)C(O)C(O)C3Cc3ccccc3)cc12` (stereo not shown) [15DK], the Ki was below 10 nM. On to `O=C1NC(Cc2ccccc2)C(O)C(O)C(Cc2ccccc2)N1Cc1ccc2[nH]nnc2c1` (stereo not shown) [15DM], for which the Ki was below 10 nM. With `CN(C)CCNC(=O)c1cccc(CN2C(=O)N(Cc3cccc(C(=O)NCCN(C)C)c3)C(Cc3ccccc3)C(O)C(O)C2Cc2ccccc2)c1` (stereo not shown) [15XV], the Ki was below 10 nM. Same read-out and setting: the result for `O=C(NCc1cccnc1)c1cccc(CN2C(=O)N(CC3CC3)C(Cc3ccccc3)C(O)C(O)C2Cc2ccccc2)c1` (stereo not shown) [15YD] reads below 10 nM.

The same experiment, now with this note: Table 2d; class symbols; read-out: HPLC K1.
On to `O=C(NC(Cc1ccccc1)C(=O)Nc1cccc(CN2C(=O)N(Cc3cccc(NC(=O)C(Cc4ccccc4)NC(=O)OCc4ccccc4)c3)C(Cc3ccccc3)C(O)C(O)C2Cc2ccccc2)c1)OCc1ccccc1` (stereo not shown) [15T], for which the Ki is below 10 nM. Turning to `CC(N)C(=O)Nc1cccc(CN2C(=O)N(Cc3cccc(NC(=O)C(C)N)c3)C(Cc3ccccc3)C(O)C(O)C2Cc2ccccc2)c1` (stereo not shown) [15U], the Ki was below 10 nM. `NC(Cc1ccccc1)C(=O)Nc1cccc(CN2C(=O)N(Cc3cccc(NC(=O)C(N)Cc4ccccc4)c3)C(Cc3ccccc3)C(O)C(O)C2Cc2ccccc2)c1` (stereo not shown) [15V]: the Ki was below 10 nM. For `O=C1N(CC2CC2CO)C(Cc2ccccc2)C(O)C(O)C(Cc2ccccc2)N1CC1CC1CO` (stereo not shown) [Example 12L], the Ki is above 1000 nM. For `O=C1NC(Cc2ccccc2)C(O)C(O)C(Cc2ccccc2)N1CC1CC1CCO` (stereo not shown) [Example 12Z], the Ki fell in the range of 10 to 1000 nM. In the case of `O=C1NC(Cc2ccccc2)C(O)C(O)C(Cc2ccccc2)N1CC1CC1CCCO` (stereo not shown) [Example 13A], the Ki was 10 to 1000 nM. On the same count and under the same terms, the result for `O=C1N(CC2CC2(c2ccccc2)c2ccccc2)C(Cc2ccccc2)C(O)C(O)C(Cc2ccccc2)N1CC1CC1(c1ccccc1)c1ccccc1` (stereo not shown) [Example 14F] reads 10 to 1000 nM.

Staying with this experiment, now noted: read-out: HPLC K1; HIV protease inhibition, HPLC method; Table 2d.
On to `O=C1N(CCCCCn2cccn2)C(Cc2ccccc2)C(O)C(O)C(Cc2ccccc2)N1CCCCCn1cccn1` (stereo not shown) [15FL], for which the Ki is above 1000 nM. The same measure, in the same setting: for `O=C1N(CCCCCN2CCOCC2)C(Cc2ccccc2)C(O)C(O)C(Cc2ccccc2)N1CCCCCN1CCOCC1` (stereo not shown) [15FM] the value was above 1000 nM.

Still in this experiment, the particulars now being: read-out: HPLC K1; Table 2d; class symbols.
Regarding `O=C1N(Cc2ccccc2)C(Cc2ccccc2)C(O)C(O)C(Cc2ccccc2)N1Cc1ccccc1` (stereo not shown) [Example 13Q], the Ki was above 1000 nM. In the case of `O=C1N(Cc2ccccc2)C(Cc2ccccc2)C(O)C(O)C(Cc2ccccc2)N1Cc1ccccc1` (stereo not shown) [Example 13Y], the Ki was above 1000 nM.

As for `CCCCCC#CCN1C(=O)N(CC#CCCCCC)C(Cc2ccccc2)C(O)C(O)C1Cc1ccccc1` (stereo not shown) [Example 14E], the Ki is 10 to 1000 nM.

Take `O=C1N(c2ccccc2)C(Cc2ccccc2)C(O)C(O)C(Cc2ccccc2)N1c1ccccc1` (stereo not shown) [Example 14G]: the Ki lay within 10 to 1000 nM.

The same experiment, now with this note: read-out: HPLC Ki; Table 2i.
In the case of `O=C1N(CC2CC2)C(Cc2ccc(F)cc2)C(O)C(O)C(Cc2ccc(F)cc2)N1CC1CC1` (stereo not shown) [20H], the Ki is below 10 nM.

Still in this experiment, the particulars now being: read-out: HPLC Ki; Table 1d, lower part.
For the molecule `COCCOCO[C@@H]1C(=O)[C@@H](Cc2ccccc2)N(CC2CC2)C(=O)N(CC2CC2)[C@@H]1Cc1ccccc1` [Example 7AA], the Ki was above 1000 nM. On to `O=C1N(CC2CC2)C(Cc2ccccc2)C(=NO)C(O)C(Cc2ccccc2)N1CC1CC1` (stereo not shown) [Example 7AB], for which the Ki was above 1000 nM. For the molecule `CON=C1C(O)C(Cc2ccccc2)N(CC2CC2)C(=O)N(CC2CC2)C1Cc1ccccc1` (stereo not shown) [Example 7AC], the Ki fell in the range of 10 to 1000 nM. Same read-out and setting: for `O=C1N(CC2CC2)C(Cc2ccccc2)c2ncoc2C(Cc2ccccc2)N1CC1CC1` (stereo not shown) [Example 7AD] the value was 10 to 1000 nM; for `COC1C(O)C(Cc2ccccc2)N(CC2CC2)C(=O)N(CC2CC2)C1Cc1ccccc1` (stereo not shown) [Example 7AE], 10 to 1000 nM. As to `COC1C(OC)C(Cc2ccccc2)N(CC2CC2)C(=O)N(CC2CC2)C1Cc1ccccc1` (stereo not shown) [Example 7AF], the Ki is above 1000 nM. Same read-out and setting: the result for `O=C1N(CC2CC2)C(Cc2ccccc2)C(OCc2ccccc2)C(OCc2ccccc2)C(Cc2ccccc2)N1CC1CC1` (stereo not shown) [Example 7AG] reads above 1000 nM.

Regarding `O=C1N(CC2CC2)C(Cc2ccccc2)C(O)C(OCc2ccccc2)C(Cc2ccccc2)N1CC1CC1` (stereo not shown) [Example 7AH], the Ki is above 1000 nM.

Consider `C=CCOC1C(O)C(Cc2ccccc2)N(CC2CC2)C(=O)N(CC2CC2)C1Cc1ccccc1` (stereo not shown) [Example 7AJ], for which the Ki lay within 10 to 1000 nM.

The same experiment, now with this note: read-out: Ki (HPLC); Table 1e, cells marked (HPLC).
On to `O=C1N(Cc2ccc(CCl)cc2)[C@H](CCc2ccccc2)[C@@H](O)[C@@H](Cc2ccccc2)N1Cc1ccc(CCl)cc1` [Example 8J], for which the Ki lay within 10 to 1000 nM.

Take `O=C1N(Cc2ccc(CO)cc2)[C@H](CCc2ccccc2)[C@@H](O)[C@@H](Cc2ccccc2)N1Cc1ccc(CO)cc1` [Example 8M]: the Ki is below 10 nM.
